The text below walks through data of patent US20100247551A1, “Use of Lipocalin 2 in the Regulation of Insulin Sensitivity” (priority 2006, published 2010).

Test [1] has as its system Lcn2 expression in 3T3-L1 adipocytes. Description: Lcn2 mRNA expression in mature 3T3-L1 adipocytes (Q-PCR). The format is cell-based, mouse. Particulars: Dex 1 μM or TNF 4 ng/μL (FIG. 1). On the procedure:
Mature 3T3-L1 adipocytes were treated with Dex (1 μM) or TNF (4 ng/μL) in the presence or absence of rosiglitazone (Rosi; 1 μM), and Lcn2 mRNA levels were measured by Q-PCR. Data presented as mean±SD, *p<0.05, ***p=0.005 relative to no Rosi.

The subject of the next test is H4IIe hepatocytes. As to the kind of experiment: Insulin resistance in H4IIe hepatocytes (glucose production, glucose-6-phosphatase mRNA expression). The format is cell-based. Particulars: liganded Lcn2 10 nM, with or without insulin 100 nM (FIG. 6). Here is the method:
FIG. 6A: Left, Glucose production induced by liganded Lcn2 (10 nM) or Dex (250 nM) in the presence or absence of insulin (100 nM). Right, effect of liganded Lcn2 (10 nM) or Dex (250 nM) on glucose-6-phosphatase mRNA expression in the presence or absence of insulin (100 nM). FIG. 6B: Dose response of liganded Lcn2 on glucose-6-phosphatase expression. FIG. 6C: Effect of apo-Lcn2 on glucose-6-phosphatase expression. For all panels, mean±SD, p<0.05, **p<0.01, n=3.

For TNF-α, the Lcn2 expression result in test [1] is “dramatically induced”.

B1: recombinant Lcn2: exogenous recombinant lipocalin 2 protein (protein, UniProt P80188 21-198, looked up)
Neutrophil …: QDSTSDLIPAPPLSKVPLQQNFQDNQFQGKWYVVGLAGNAILREDKDPQKMYATIYELKEDKSYNVTSVLFRKKKCDYWIRTFVPGCQPGEFTLGNIKSYPGLTSYLVRVVSTNYNQHAMVFFKKVSQNREYFKITLYGRTKELTSELKENFIRFSKSLGLPENHIVFPVPIDQCIDG
For B1, in the test on H4IIe hepatocytes, the “insulin resistance (glucose production, glucose-6-phosphatase expression)” value was “induces insulin resistance”.
